28 compounds from patent publication US8178668B2, “2-aminopyridine kinase inhibitors” (OSI Pharmaceuticals, LLC, priority 2008, dated 2012) can be followed below.

In one assay the target is MET (human) (Homo sapiens, UniProt P08581). In words: MET kinase AlphaScreen assay (Km of ATP). It is filed as biochemical. Particulars: ATP at Km; at least duplicate experiments. How it is done:
(§1) Person skilled in the art will appreciate that a variety of assay formats may be used to determine the activity of the compounds of this invention. For example, AlphaScreen (Amplified Luminescent Proximity Homogeneous Assay) technology was used with the kinases described below. Assay ATP concentrations for individual kinases are included in the text.
MET (human)—Km of ATP: MET assay is performed in a 384 well assay containing 200 ng/μL biotinylated poly(Glu,Tyr), 0.334 mM vanadate, desired concentration of ATP optimized for the enzyme in assay buffer (50 mM HEPES (pH=7.4), 5 mM MgCl2, 5 mM MnCl2, and 1% glycerol). Desired compound is added in a final concentration of 1% DMSO with control being vehicle of DMSO alone. MET is diluted to the optimized concentration (optimized on a lot-by-lot basis) in an enzyme diluent buffer (50 mM Tris pH=7.4, 1% glycerol, 0.03% Brij35, 0.24 mM EGTA, 1 mM DTT, and 0.003% BSA). Enzyme is added to initiate the reaction and incubated for 60 min at RT. In subdued light, appropriate amount of PT66 donor and acceptor beads (diluted 1:260 from manufacturer's provision in a 25 mM Tris HCl (pH=7.5), 400 mM NaCl, 100 mM EDTA, 0.3% BSA buffer) are added to the wells. The plates, incubated for 1 h, are read on an AlphaQuest plate reader
A general note: Alpha assays give light when donor and acceptor beads are brought close together.

In a further assay the target is RON (human) (Homo sapiens, UniProt Q04912). In words: RON kinase AlphaScreen assay (Km of ATP). It is filed as biochemical. The settings on record: ATP at Km; at least duplicate experiments. The procedure: as §1
RON (human)—Km of ATP: RON assay is performed in a 384 well assay containing 200 ng/μL biotinylated poly(Glu,Tyr), 0.334 mM vanadate, desired concentration of ATP optimized for the enzyme in assay buffer (50 mM HEPES (pH=7.4), 12.5 mM MgCl2 and 1% glycerol). Desired compound is added in a final concentration of 1% DMSO with control being vehicle of DMSO alone. RON is diluted to the optimized (on a lot-by-lot basis) concentration in an enzyme diluent buffer (50 mM HEPES pH=7.4, 12.5 mM MgCl2 and 1% glycerol, 0.03% Brij35, 0.3 mM EGTA, lmM DTT, and 0.003% BSA). Enzyme is added to initiate the reaction and incubated for 30 min at RT. In subdued light, appropriate amount of PT66 donor and acceptor beads (diluted 1:260 from manufacturer's provision in a 25 mM Tris HCl (pH=7.5), 200 mM NaCl, 100 mM EDTA, 0.3% BSA buffer) are added to the wells. The plates, incubated for 1 h, are read on an AlphaQuest plate reader.

Structures can show the parent of a compound that is named as a salt.

MET (human), sequence (P08581 25-1390): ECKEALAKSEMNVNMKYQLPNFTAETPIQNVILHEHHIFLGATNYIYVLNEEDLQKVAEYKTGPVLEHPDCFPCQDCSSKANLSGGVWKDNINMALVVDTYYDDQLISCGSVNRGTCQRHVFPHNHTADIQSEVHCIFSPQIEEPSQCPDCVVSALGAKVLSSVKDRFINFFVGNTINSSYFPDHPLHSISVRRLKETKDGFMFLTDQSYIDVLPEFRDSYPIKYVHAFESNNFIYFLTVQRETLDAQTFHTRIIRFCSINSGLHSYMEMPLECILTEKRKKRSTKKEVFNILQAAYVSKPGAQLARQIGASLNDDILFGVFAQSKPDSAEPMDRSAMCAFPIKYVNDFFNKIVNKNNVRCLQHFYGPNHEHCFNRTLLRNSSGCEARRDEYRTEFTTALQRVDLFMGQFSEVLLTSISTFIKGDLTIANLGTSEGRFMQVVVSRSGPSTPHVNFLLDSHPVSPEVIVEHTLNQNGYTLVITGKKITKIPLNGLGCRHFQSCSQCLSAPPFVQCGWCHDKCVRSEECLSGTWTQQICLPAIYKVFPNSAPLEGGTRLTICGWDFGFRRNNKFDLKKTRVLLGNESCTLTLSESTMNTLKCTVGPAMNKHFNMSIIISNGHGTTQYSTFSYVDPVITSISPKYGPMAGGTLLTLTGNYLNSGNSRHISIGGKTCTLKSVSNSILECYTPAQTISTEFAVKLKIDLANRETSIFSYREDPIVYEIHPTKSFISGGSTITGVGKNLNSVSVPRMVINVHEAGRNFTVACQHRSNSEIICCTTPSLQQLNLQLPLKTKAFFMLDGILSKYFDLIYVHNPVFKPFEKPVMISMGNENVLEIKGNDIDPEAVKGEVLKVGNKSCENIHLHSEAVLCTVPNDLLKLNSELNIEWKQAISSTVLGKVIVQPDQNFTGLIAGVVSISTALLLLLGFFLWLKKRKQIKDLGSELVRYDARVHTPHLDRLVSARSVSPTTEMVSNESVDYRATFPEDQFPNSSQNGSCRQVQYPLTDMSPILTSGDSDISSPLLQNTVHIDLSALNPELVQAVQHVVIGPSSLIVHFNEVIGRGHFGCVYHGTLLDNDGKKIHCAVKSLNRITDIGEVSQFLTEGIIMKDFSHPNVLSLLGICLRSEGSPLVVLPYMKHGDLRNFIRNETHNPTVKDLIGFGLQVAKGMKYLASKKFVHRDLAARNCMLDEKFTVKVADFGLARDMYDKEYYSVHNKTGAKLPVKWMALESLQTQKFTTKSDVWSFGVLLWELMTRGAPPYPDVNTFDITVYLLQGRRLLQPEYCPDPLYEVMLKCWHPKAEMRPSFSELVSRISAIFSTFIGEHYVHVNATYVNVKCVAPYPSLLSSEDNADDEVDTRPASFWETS
RON (human), sequence (Q04912 25-1400): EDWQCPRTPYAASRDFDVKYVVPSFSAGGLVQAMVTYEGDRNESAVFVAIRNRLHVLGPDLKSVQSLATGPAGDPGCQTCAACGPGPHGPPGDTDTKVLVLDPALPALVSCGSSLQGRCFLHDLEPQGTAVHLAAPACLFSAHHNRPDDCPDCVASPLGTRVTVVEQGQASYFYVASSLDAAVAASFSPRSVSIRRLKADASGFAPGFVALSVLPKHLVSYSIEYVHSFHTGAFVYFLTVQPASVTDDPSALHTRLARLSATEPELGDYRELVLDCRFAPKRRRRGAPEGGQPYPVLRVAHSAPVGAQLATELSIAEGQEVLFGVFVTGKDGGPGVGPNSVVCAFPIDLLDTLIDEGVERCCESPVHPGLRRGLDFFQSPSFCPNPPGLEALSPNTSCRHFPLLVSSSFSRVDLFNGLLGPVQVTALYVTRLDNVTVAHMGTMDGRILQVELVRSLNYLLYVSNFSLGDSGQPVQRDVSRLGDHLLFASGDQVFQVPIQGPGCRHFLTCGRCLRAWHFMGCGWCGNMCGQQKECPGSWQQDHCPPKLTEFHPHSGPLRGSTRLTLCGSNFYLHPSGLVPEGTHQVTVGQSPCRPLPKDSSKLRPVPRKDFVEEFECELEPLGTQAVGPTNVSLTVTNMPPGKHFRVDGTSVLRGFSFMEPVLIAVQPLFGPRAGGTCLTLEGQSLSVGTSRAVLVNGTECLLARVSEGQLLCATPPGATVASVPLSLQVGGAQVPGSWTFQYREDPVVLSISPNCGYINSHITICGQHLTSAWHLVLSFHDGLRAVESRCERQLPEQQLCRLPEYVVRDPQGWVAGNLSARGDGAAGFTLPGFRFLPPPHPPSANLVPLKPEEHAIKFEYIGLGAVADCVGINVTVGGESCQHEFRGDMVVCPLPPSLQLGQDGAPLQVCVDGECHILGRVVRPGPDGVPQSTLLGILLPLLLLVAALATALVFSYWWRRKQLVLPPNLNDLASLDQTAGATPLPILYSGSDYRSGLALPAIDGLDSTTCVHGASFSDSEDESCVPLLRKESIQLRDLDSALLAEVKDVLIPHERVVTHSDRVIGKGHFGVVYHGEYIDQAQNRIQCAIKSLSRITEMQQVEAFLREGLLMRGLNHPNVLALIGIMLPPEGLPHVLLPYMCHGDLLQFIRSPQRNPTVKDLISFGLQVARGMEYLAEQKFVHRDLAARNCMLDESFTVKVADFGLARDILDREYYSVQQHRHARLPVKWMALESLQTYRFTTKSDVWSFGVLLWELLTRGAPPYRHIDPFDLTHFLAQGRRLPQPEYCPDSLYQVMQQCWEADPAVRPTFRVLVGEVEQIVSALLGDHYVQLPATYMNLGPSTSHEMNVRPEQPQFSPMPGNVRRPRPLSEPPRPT

What is called IC50 is the concentration needed to halve the response being measured. Higher therefore signals lower potency. With `Nc1ncc(-c2cccc(C(=O)NCCCN3CCOCC3)c2)cc1-c1nc2ccccc2s1` [Example 225, 3-(6-Amino-5-benzothiazol-2-ylpyridin-3-yl)-N-(3-morpholin-4-ylpropyl)benzamide], the half-maximal inhibitory concentration (IC50) at MET (human) and against RON (human) was 1000 to 20000 nM in each case.
On to `Nc1ncc(-c2cnn(C3CCNCC3)c2)cc1-c1cc2cccc(Cl)c2cn1` [Example 3, 3-(8-Chloroisoquinolin-3-yl)-5-(1-piperidin-4-yl-1H-pyrazol-4-yl)-pyridin-2-ylamine trihydrochloride], for which the IC50 against MET (human) and at RON (human) was not above 100 nM throughout.
`Nc1ncc(-c2cnn(C3CCNCC3)c2)cc1-c1nc2cccc(C(F)(F)F)c2s1` [Example 260, 5-(1-Piperidin-4-yl-1H-pyrazol-4-yl)-3-(7-trifluoromethylbenzothiazol-2-yl)-pyridin-2-ylamine]: the IC50 against MET (human) and on RON (human) was 100 to 1000 nM each time.
For `CC(C)(C)OC(=O)N1CC=C(c2cnc(N)c(-c3cc4c(Cl)ccc(F)c4cn3)c2)CC1` [Example 80], the IC50 against MET (human) and at RON (human) was 1000 to 20000 nM throughout.
For the compound `Nc1ncc(-c2ccccc2)cc1-c1cc2c(Cl)ccc(F)c2cn1` [Example 77, 3-(5-Chloro-8-fluoroisoquinolin-3-yl)-5-phenylpyridin-2-amine], the concentration for half-maximal inhibition (IC50) against MET (human) and on RON (human) was more than 20000 nM throughout.
For the compound `Nc1ncc(-c2cnn([C@@H]3CN[C@@H](C(=O)N4CCOCC4)C3)c2)cc1-c1nc2ccccc2s1` [Example 179, {(2R,4S)-4-[4-(6-Amino-5-benzothiazol-2-ylpyridin-3-yl)-pyrazol-1-yl]-pyrrolidin-2-yl}-morpholin-4-ylmethanone], the IC50 on MET (human) is not above 100 nM; at RON (human) it was 100 to 1000 nM.
For `Nc1ncc(-c2ccoc2)cc1-c1cc2c(Cl)ccc(F)c2cn1` [Example 85, 3-(5-Chloro-8-fluoroisoquinolin-3-yl)-5-furan-3-ylpyridin-2-amine], in that order: 1000 to 20000 nM and more than 20000 nM.
On to `Nc1ncc(-c2cnn(C3CCNCC3)c2)cc1-c1nc2cc(Br)ccc2s1` [Example 276, 3-(5-Bromobenzothiazol-2-yl)-5-(1-piperidin-4-yl-1H-pyrazol-4-yl)-pyridin-2-ylamine], for which the 50% inhibitory concentration (IC50) against MET (human) and against RON (human) was 100 to 1000 nM in each case.
With `CN1CCN(C(=O)c2ccc(-c3cnc(N)c(-c4nc5ccccc5s4)c3)cc2)CC1` [Example 182, [4-(6-Amino-5-benzothiazol-2-ylpyridin-3-yl)phenyl]-(4-methylpiperazin-1-yl)methanone], the IC50 on MET (human) lay within 100 to 1000 nM; on RON (human), 1000 to 20000 nM.
For `Nc1ncc(-c2cnn([C@@H]3CN[C@H](C(=O)N4CCC(O)C4)C3)c2)cc1-c1nc2ccccc2s1` (stereo partly drawn) [Example 159, {(2S,4S)-4-[4-(6-Amino-5-benzothiazol-2-ylpyridin-3-yl)-pyrazol-1-yl]-pyrrolidin-2-yl}-(3-hydroxypyrrolidin-1-yl)-methanone], in that order: not above 100 nM and not above 100 nM.
In the case of `Nc1ncc(-c2ccc(OCC(=O)NCc3ccccc3)cc2)cc1-c1nc2ccccc2s1` [Example 240, 2-[4-(6-Amino-5-benzothiazol-2-ylpyridin-3-yl)-phenoxy]-N-benzylacetamide], the IC50 against MET (human) and against RON (human) was 1000 to 20000 nM each time.
For the compound `Nc1ncc(-c2cnn(C3CCNCC3)c2)cc1-c1cc2c(-c3ccccc3)ccc(F)c2cn1` [Example 50, 3-(8-Fluoro-5-phenylisoquinolin-3-yl)-5-(1-piperidin-4-yl-1H-pyrazol-4-yl)-pyridin-2-ylamine], the IC50 at MET (human) and against RON (human) was 100 to 1000 nM in each case.
Regarding `Nc1ncc(-c2cnn(C3CCNCC3)c2)cc1-c1nc2cc(F)ccc2s1` [Example 283, 3-(5-Fluorobenzothiazol-2-yl)-5-(1-piperidin-4-yl-1H-pyrazol-4-yl)-pyridin-2-ylamine], the IC50 at MET (human) and against RON (human) was not above 100 nM throughout.
In the case of `Nc1ncc(-c2ccco2)cc1-c1cc2c(Cl)ccc(F)c2cn1` [Example 86, 3-(5-Chloro-8-fluoroisoquinolin-3-yl)-5-furan-2-ylpyridin-2-amine], the half-inhibitory concentration (IC50) at MET (human) is 1000 to 20000 nM; at RON (human), more than 20000 nM.
For `Cn1cc(-c2cnc(N)c(-c3cc4c(Cl)ccc(F)c4cn3)c2)cn1` [Example 65, 3-(5-Chloro-8-fluoroisoquinolin-3-yl)-5-(1-methyl-1H-pyrazol-4-yl)-pyridin-2-ylamine bis-hydrochloride], in that order: 1000 to 20000 nM and 1000 to 20000 nM.
The matching figures for `Nc1ncc(-c2cnn(C3CCNCC3)c2)cc1-c1ncc2ccccc2c1F` [Example 8, 3-(4-Fluoroisoquinolin-3-yl)-5-(1-piperidin-4-yl-1H-pyrazol-4-yl)-pyridin-2-ylamine trihydrochloride]: 1000 to 20000 nM and 1000 to 20000 nM.
The matching figures for `C[C@@H]1CN(C(=O)c2cccc(-c3cnc(N)c(-c4nc5ccccc5s4)c3)c2)C[C@H](C)N1C` [Example 228, [3-(6-Amino-5-benzothiazol-2-ylpyridin-3-yl)phenyl]-(cis-3,4,5-trimethylpiperazin-1-yl)methanone]: 100 to 1000 nM and 1000 to 20000 nM.
Take `CN(C)CC(=O)NCC#Cc1cnc(N)c(-c2nc3ccccc3s2)c1` [Example 130, N-[3-(6-Amino-5-benzothiazol-2-ylpyridin-3-yl)-prop-2-ynyl]-2-dimethylaminoacetamide]: the results for the IC50 against MET (human) and against RON (human) were 100 to 1000 nM and 1000 to 20000 nM, respectively.
For `Nc1ncc(-c2cccc(C(=O)N3CCCC3)c2)cc1-c1nc2ccccc2s1` [Example 204, [3-(6-Amino-5-benzothiazol-2-ylpyridin-3-yl)phenyl]pyrrolidin-1-ylmethanone], the results for the IC50 at MET (human) and against RON (human) were 1000 to 20000 nM and more than 20000 nM, respectively.
For `CN(C)C(=O)N1CCC(n2cc(-c3cnc(N)c(-c4cc5ccccc5o4)c3)cn2)CC1` [Example 103, 4-[4-(6-Amino-5-benzofuran-2-yl-pyridin-3-yl)-pyrazol-1-yl]-piperidine-1-carboxylic acid dimethylamide bis-hydrochloride], in that order: 100 to 1000 nM and 1000 to 20000 nM.
The matching figures for `CN(C)CCNC(=O)c1cccc(-c2cnc(N)c(-c3nc4ccccc4s3)c2)c1` [Example 187, 3-(6-Amino-5-benzothiazol-2-ylpyridin-3-yl)-N-(2-dimethylaminoethyl)benzamide]: 1000 to 20000 nM and 1000 to 20000 nM.
In the case of `Nc1ncc(-c2cnn(C3CCC4(CC3)OCCO4)c2)cc1-c1nc2ccccc2s1` [Example 124, 3-Benzothiazol-2-yl-5-[1-(1,4-dioxaspiro[4.5]dec-8-yl)-1H-pyrazol-4-yl]-pyridin-2-ylamine], the concentration for half-maximal inhibition (IC50) at MET (human) is more than 20000 nM; on RON (human) it was 1000 to 20000 nM.
For `Nc1ncc(-c2cnn(C3CCNCC3)c2)cc1-c1nc2ccccc2s1` [Example 107, 3-Benzothiazol-2-yl-5-(1-piperidin-4-yl-1H-pyrazol-4-yl)-pyridin-2-ylamine dihydrochloride], in that order: not above 100 nM and not above 100 nM.
`CN1CCC(N(C)C(=O)c2cccc(-c3cnc(N)c(-c4nc5ccccc5s4)c3)c2)CC1` [Example 210, 3-(6-Amino-5-benzothiazol-2-ylpyridin-3-yl)-N-methyl-N-(1-methylpiperidin-4-yl)benzamide]: the results for the IC50 against MET (human) and on RON (human) were 100 to 1000 nM and 1000 to 20000 nM, respectively.
The matching figures for `CNC(=O)COc1ccc(-c2cnc(N)c(-c3nc4ccccc4s3)c2)cc1` [Example 238, 2-[4-(6-Amino-5-benzothiazol-2-ylpyridin-3-yl)-phenoxy]-N-methylacetamide]: 1000 to 20000 nM and 1000 to 20000 nM.
For `NC(=O)c1ccc(-c2cnc(N)c(-c3nc4ccccc4s3)c2)cc1` [Example 190, 4-(6-Amino-5-benzothiazol-2-ylpyridin-3-yl)benzamide], in that order: 1000 to 20000 nM and more than 20000 nM.
The matching figures for `Nc1ncc(-c2cnn(CCC(=O)NCCO)c2)cc1-c1nc2ccccc2s1` [Example 293, 3-[4-(6-Amino-5-benzothiazol-2-ylpyridin-3-yl)-pyrazol-1-yl]-N-(2-hydroxyethyl)-propionamide]: 100 to 1000 nM and 1000 to 20000 nM.
`CN(C)C(=O)c1ccc(-c2cnc(N)c(-c3nc4ccccc4s3)c2)cc1` [Example 183, 4-(6-Amino-5-benzothiazol-2-ylpyridin-3-yl)-N,N-dimethylbenzamide]: the IC50 against MET (human) and against RON (human) was 1000 to 20000 nM in each case.
